Measured values as given in patent US4965272A, “Antimicrobial compound and compositions particularly effective against candida albicans” (priority 1988, dated 1990).
≈ marks a conversion by molar mass, not a printed value.

What was measured:
[1] = tested on: Candida albicans; assay: in vivo testing, disseminated infection of Candida albicans in outbred mice
From the text: In the in vivo testing of the inventive compound and compositions, outbred mice were used. A disseminated infection of Candida albicansin the test animals was achieved by intravenous injection of 0.5 to 1×10^6 CFU of the pathogen. The organism is rapidly cleared from the blood and most tissues, except the kidney which is the primary target organ for the disseminated infection in mice. It is known than an inoculum of 0.5×10^6 CFU will cause death of outbred mice within 10-14 days due to disseminated infection if untreated. The vehicle used for administering the compound of the invention was a mixture consisting of 50% USP water, 40% propylene glycol and 10% absolute ethonol.

[2] = humans, under varying conditions; cited from earlier work
[3] = tested on: Candida albicans 10231; assay: MIC, twofold serial broth dilution assay; assay type: cell-based; conditions: ATCC10231; Candida albicans ATCC 10231; 24 and 48 hours at 37°
Protocol: (§1) Candida albicansNIH B311 used to induce experimental disseminated candidiasis was used for the initial qualitative evaluation of anticandidal activity. The organism was grown in Sabouraud-dextrose broth (SDB) for 14 hours at 37°, at which time the cells were harvested by centrifugation (4°, 2000 rpm, 3 min). After centrifugation, the cells were washed and suspended in sterile 0.9% saline to give a final concentration of […] colony forming units (CFU) per ml (adjusted using a hemocytometer). Culture plates (15×100 mm) for the qualitative assay were prepared from 25 ml of Sabouraud-dextrose agar. Using sterile cotton swabs, the plates were streaked with the suspension ([…] of Candida albicansB311. Cylindrical plugs were removed from the agar plates by means of a sterile cork borer to produce wells with a diameter of approximately 11 mm. To the well was added 100 μl of solution or suspension of an extract, fraction, or pure compound. Crude extracts and fractions were tested at a concentration of 20 mg/ml, whereas pure compounds were tested at 1 mg/ml. When solvents other than H2 O, EtOH, MeOH, DMSO, DMF, or Me2 CO were required to dissolve extracts or compounds, solvent blanks were included. Anticandidal activity was recorded as the width (in mm) of the zone of inhibition following incubation of the plates at 37° for 24 hours. The antifungal agents amphotericin-B and ketoconazole were included as standards in each assay.
(§2) The method used to determine the minimum inhibitory concentration (MIC) of the inventive compound was a twofold serial broth dilution assay in yeast nitrogen broth. In addition to Candida albicansB311, the MIC values for eupolauridine were also determined for two additional strains of Candida albicans: ATCC 10231 and a clinical isolate, designated WH. The inventive compound was initially tested using a concentration of 100 μg/ml in the first tube. The compound was added to sterile Sabouraud-dextrose broth as a solution in DMSO. The inoculum for the MIC determination was prepared as described for qualitative evaluation. […]

[4] = tested on: Candida albicans B311; assay: MIC, twofold serial broth dilution assay; assay type: cell-based; conditions: 24 and 48 hours at 37°
Protocol: as §1, §2

[5] = tested on: Candida albicans WH; assay: MIC, twofold serial broth dilution assay; assay type: cell-based; conditions: Candida albicans clinical isolate WH; 24 and 48 hours at 37°
Protocol: as §1, §2

[6] = tested on: Cryptococcus neoformans 32264; assay: MIC, twofold serial broth dilution assay; assay type: cell-based
[7] = tested on: Aspergillus flavus 9170; assay: MIC, twofold serial broth dilution assay; assay type: cell-based
[8] = tested on: Aspergillus fumigatus 26934; assay: MIC, twofold serial broth dilution assay; assay type: cell-based
[9] = tested on: Trichophyton mentagrophytes 9972; assay: MIC, twofold serial broth dilution assay; assay type: cell-based
[10] = tested on: Saccharomyces cerevisiae 9763; assay: MIC, twofold serial broth dilution assay; assay type: cell-based
[11] = tested on: Candida albicans; assay: anticandidal activity, agar-well diffusion assay (zone of inhibition); assay type: cell-based; conditions: three test strains of Candida albicans
Protocol: In vitro evaluation of the anticandidal activity of the inventive compound and compositions was carried out using the agar-well diffusion assay as follows:
Candida albicansNIH B311 used to induce experimental disseminated candidiasis was used for the initial qualitative evaluation of anticandidal activity. The organism was grown in Sabouraud-dextrose broth (SDB) for 14 hours at 37°, at which time the cells were harvested by centrifugation (4°, 2000 rpm, 3 min). After centrifugation, the cells were washed and suspended in sterile 0.9% saline to give a final concentration of […] colony forming units (CFU) per ml (adjusted using a hemocytometer). Culture plates (15×100 mm) for the qualitative assay were prepared from 25 ml of Sabouraud-dextrose agar. […] Anticandidal activity was recorded as the width (in mm) of the zone of inhibition following incubation of the plates at 37° for 24 hours. […]

C[C@@H]1[C@H](O)[C@@H](C)/C=C/C=C/C=C/C=C/C=C/C=C/C=C/[C@H](O[C@@H]2O[C@H](C)[C@@H](O)[C@H](N)[C@@H]2O)C[C@@H]2O[C@](O)(C[C@@H](O)C[C@@H](O)[C@H](O)CC[C@@H](O)C[C@@H](O)CC(=O)O[C@H]1C)C[C@H](O)[C@H]2C(=O)O [Amphotericin-B, amphotericin-B, reference compound]
Number dead/Total ([1]; 2.5 mg/kg, day 1): 0/10
Number dead/Total ([1]; 2.5 mg/kg, day 2): 0/10
Number dead/Total ([1]; 2.5 mg/kg, day 3): 0/10
Number dead/Total ([1]; 2.5 mg/kg, day 4): 0/10
Number dead/Total ([1]; 2.5 mg/kg, day 5): 0/10
Number dead/Total ([1]; 2.5 mg/kg, day 6): 1/10
Number dead/Total ([1]; 2.5 mg/kg, day 7): 2/10
Number dead/Total ([1]; 2.5 mg/kg, day 8): 2/10
Number dead/Total ([1]; 2.5 mg/kg, day 9): 4/10
Number dead/Total ([1]; 2.5 mg/kg, day 10): 4/10
side effects [2]: fever, anorexia, nausea and vomiting, diarrhea, muscle and joint pain, phlebitis and thiophlebitis, anemia, abnormal renal function, anuria, cardiovascular distress, hypertension and hypotension

c1ccc2c(c1)-c1nccc3ccnc-2c13 [Eupolauridine, eupolauridine]
MIC [3]: 1.56 µg/mL (≈ 7.64 µM)
MIC [4]: 1.56 µg/mL (≈ 7.64 µM)
MIC [5]: 1.56 µg/mL (≈ 7.64 µM)
MIC [6]: 1.56 µg/mL (≈ 7.64 µM)
MIC [7]: 6.25 µg/mL (≈ 30.6 µM)
MIC [8]: 6.25 µg/mL (≈ 30.6 µM)
MIC [9]: 1.56 µg/mL (≈ 7.64 µM)
MIC [10]: 3.12 µg/mL (≈ 15.3 µM)
Number dead/Total ([1]; 2 mg/kg, day 1): 0/10
Number dead/Total ([1]; 2 mg/kg, day 2): 0/10
Number dead/Total ([1]; 2 mg/kg, day 3): 0/10
Number dead/Total ([1]; 2 mg/kg, day 4): 0/10
Number dead/Total ([1]; 2 mg/kg, day 5): 0/10
Number dead/Total ([1]; 2 mg/kg, day 6): 1/10
Number dead/Total ([1]; 2 mg/kg, day 7): 3/10
Number dead/Total ([1]; 2 mg/kg, day 8): 4/10
Number dead/Total ([1]; 2 mg/kg, day 9): 4/10
Number dead/Total ([1]; 2 mg/kg, day 10): 7/10
Number dead/Total ([1]; 7 mg/kg, day 1): 0/10
Number dead/Total ([1]; 7 mg/kg, day 2): 0/10
Number dead/Total ([1]; 7 mg/kg, day 3): 2/10
Number dead/Total ([1]; 7 mg/kg, day 4): 2/10
Number dead/Total ([1]; 7 mg/kg, day 5): 2/10
Number dead/Total ([1]; 7 mg/kg, day 6): 3/10
Number dead/Total ([1]; 7 mg/kg, day 7): 3/10
Number dead/Total ([1]; 7 mg/kg, day 8): 3/10
Number dead/Total ([1]; 7 mg/kg, day 9): 4/10
Number dead/Total ([1]; 7 mg/kg, day 10): 7/10
animals survived ([1]; 20 mg/kg body weight, 10 days): 50%
survival compared with amphotericin-B ([1]; 20 mg/kg body weight, 10 days): not statistically significantly different from the results with amphotericin-B
Number dead/Total ([1]; 20 mg/kg, day 1): 0/10
Number dead/Total ([1]; 20 mg/kg, day 2): 0/10
Number dead/Total ([1]; 20 mg/kg, day 3): 0/10
Number dead/Total ([1]; 20 mg/kg, day 4): 0/10
Number dead/Total ([1]; 20 mg/kg, day 5): 0/10
Number dead/Total ([1]; 20 mg/kg, day 6): 0/10
Number dead/Total ([1]; 20 mg/kg, day 7): 1/10
Number dead/Total ([1]; 20 mg/kg, day 8): 3/10
Number dead/Total ([1]; 20 mg/kg, day 9): 3/10
Number dead/Total ([1]; 20 mg/kg, day 10): 5/10
zone of inhibition [11]: remarkable zone of inhibition
